Data as given in publication PMC3670040, “Structure of Lipid Kinase p110β/p85β Elucidates an Unusual SH2-Domain-Mediated Inhibitory Mechanism” (Molecular Cell, 2011).
Square brackets hold non-standard residues; d marks the D form. Ends that are not written are not given here. pY = N[C@@H](Cc1ccc(OP(=O)(O)O)cc1)C(=O)O

Tested on: p110β/p85β-nic
Assay: ATPase activity (ADP formation) in the absence of lipid substrate, Transcreener
Format: biochemical, mouse
Conditions: p110β/p85-niSH2 and p110β/p85-icSH2 complexes; absence of lipid substrate
Procedure: Figure 1 Inhibition of p110β by p85-Type Regulatory Subunits and Activation of the Complexes by RTK Phosphopeptide (A) Domain organization of p110β and the regulatory subunits p85α, p85β, and p55γ. The color scheme for the domains is used for all figures, unless otherwise stated. […] The inhibition is released upon addition of the 10 μM PDGFR pY2. […] The y axis is expressed as a change in fluorescence polarization (ΔmP), which is obtained by subtracting the observed polarization for the construct at a given enzyme concentration from the maximum fluorescence polarization for that construct. The plateau in these assays arises due to the competitive nature of the ADP detection system, based on displacement of ADP-Alexa 633 tracer from the ADP^2-antibody by ADP generated during the PI3K assay (see Supplemental Experimental Procedures). All measurements were done in triplicates, and the error bars indicate the standard error of the mean (SEM). […]
The lipid kinase activity was determined using the Transcreener ADP2 FP Assay (BellBrook Labs, Madison, WI) according to manufacturer‟s specifications. This non-radioactive assay measures activity by quantitating the amount of ADP formed. The ADP formed by PI3K competes with fluorescent ADP tracer for binding to an anti-ADP antibody, thereby decreasing fluorescence polarization. […]

ATPase activity in the presence of pY2: enhanced
Substance: ESDGG[pY]MDMSKDESID[pY]VPMLDMKGDIKYADIE [pY2, bis-phosphopeptide (PDGFR 735–767, with pY740 and pY751)]
